From patent US8629159B2, “Thiazolidinedione analogues” (Metabolic Solutions Development Company, LLC, priority 2006, dated 2014)

Assays:
PPARγ = molecular target: T1, PPARγ (Homo sapiens, UniProt P37231); assay: commercial PPARγ binding assay (Invitrogen; PPAR-LBD/Fluormone PPAR Green complex); settings: for Binding to PPARγ (Fluormone displacement signal): mean of three experiments
T1 construct: purchased Invitrogen Corporation, Carlsbad, Calif
T1 sequence (P37231 238-503 limits assumed): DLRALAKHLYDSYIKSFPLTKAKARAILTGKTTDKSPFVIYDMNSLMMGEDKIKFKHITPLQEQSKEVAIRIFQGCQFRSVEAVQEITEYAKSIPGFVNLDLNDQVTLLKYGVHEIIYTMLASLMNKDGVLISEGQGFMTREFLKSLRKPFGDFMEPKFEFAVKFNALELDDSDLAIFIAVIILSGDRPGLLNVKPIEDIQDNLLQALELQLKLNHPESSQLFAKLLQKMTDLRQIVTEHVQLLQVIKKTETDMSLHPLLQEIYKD
Description: The ability of several exemplary compounds of the present invention, shown in Table A, to bind to PPARγ was measured using a commercial binding assay (Invitrogen Corporation, Carlsbad, Calif.) that measures the test compounds ability to bind with PPAR-LBD/Fluormone PPAR Green complex. These assays were performed on three occasions with each assay using four separate wells (quadruplicate) at each concentration of tested compound. The data are mean and SEM of the values obtained from the three experiments. […] Compounds were added at the concentrations shown, which range from 0.1-100 micromolar.

[1] = tested on: Male Dahl salt-sensitive rats; assay: Antihypertensive action in hypertensive Dahl salt-sensitive rats (high salt diet), mean blood pressure by direct femoral arterial cannulation; type: in vivo, rat; settings: oral gavage daily, Compound 1 40 mg/kg/day, HCTZ 5 mg/kg/day
Description: Male Dahl salt-sensitive rats were made hypertensive by feeding of a high salt diet (4% salt) for 3 weeks and then treated daily with the indicated dose of hydrochlorothiazide (HCTZ), compound 1, or the combination of HCTZ and compound 1, as compared to the vehicle alone (1% carboxymethylcellulose/0.01% Tween 20) by oral gavage for 8 days. Mean blood pressure was measured by direct femoral arterial cannulation under fed conditions on day 7 and after a 6 hour fast on day 8.
Referring to FIG. 2 and Table C above, the antihypertensive action of compound 1 is additive with hydrocholothiazide (HCTZ). Data are mean and (SEM) mean blood pressure taken by direct cannulation. N=5; * p<0.05 less than blood pressure in HCTZ-treated rats.

SMILES	Binding to PPARγ (Fluormone displacement signal) (PPARγ; 1 μM compound)	Binding to PPARγ (Fluormone displacement signal) (PPARγ; 3 μM compound)	Binding to PPARγ (Fluormone displacement signal) (PPARγ; 10 μM compound)	Binding to PPARγ (Fluormone displacement signal) (PPARγ; 50 μM compound)	Binding to PPARγ (Fluormone displacement signal) (PPARγ; 100 μM compound)	Binding to PPARγ (Fluormone displacement signal) (PPARγ; .1 μM compound)	Binding to PPARγ (Fluormone displacement signal) (PPARγ; .3 μM compound)	binding to PPARγ (in words) (PPARγ; FIG. 1 and Table B)	Mean blood pressure, Fasted ([1]; 6 hour fast, day 8)	Mean blood pressure, Fed ([1]; fed, day 7)
CCc1ccc(CCOc2ccc(CC3(C)SC(=O)NC3=O)cc2)nc1 (single isomer, unassigned) [Compound 4]	234	224	200	122	91	236	230	–	–	–
CCc1ccc(CCOc2ccc(CC3(C)SC(=O)NC3=O)cc2)nc1 (single isomer, unassigned) [Compound 6]	233	223	198	126	99	246	246	–	–	–
CCc1ccc(CCOc2ccc(CC3(C)SC(=O)NC3=O)cc2)nc1 (single isomer, unassigned) [Compound 7]	248	237	210	144	105	249	246	–	–	–
CCc1ccc([C@@H](O)COc2ccc(CC3SC(=O)NC3=O)cc2)nc1 (stereo partly drawn) [Compound 2]	238	236	223	162	136	231	233	particularly poor binders	–	–
CCc1ccc([C@H](O)COc2ccc(CC3SC(=O)NC3=O)cc2)nc1 (stereo partly drawn) [Compound 3]	203	185	134	88	77	226	221	–	–	–
CCc1ccc(C(O)COc2ccc(CC3(C)SC(=O)NC3=O)cc2)nc1 (stereo not drawn) [Compound 5]	228	226	212	132	106	235	230	–	–	–
CCc1ccc([C@@H](O)COc2ccc(CC3(C)SC(=O)NC3=O)cc2)nc1 (stereo partly drawn) [Compound 8]	239	241	233	199	186	237	243	–	–	–
CCc1ccc([C@H](O)COc2ccc(CC3(C)SC(=O)NC3=O)cc2)nc1 (stereo partly drawn) [Compound 9]	239	233	234	189	164	237	237	–	–	–
CCc1ccc(C(=O)COc2ccc(CC3(C)SC(=O)NC3=O)cc2)nc1 (stereo not drawn) [Compound 10]	240	234	219	126	93	245	239	–	–	–
CCc1ccc(C(=CC(=O)OC)COc2ccc(CC3SC(=O)NC3=O)cc2)nc1 (stereo not drawn) [Compound 11]	232	229	165	128	78	230	227	–	–	–
CCc1ccc(C(COc2ccc(CC3SC(=O)NC3=O)cc2)CC(=O)OC)nc1 (stereo not drawn) [Compound 12]	198	155	112	80	85	243	222	–	–	–
CCc1ccc(C(=CCO)COc2ccc(CC3SC(=O)NC3=O)cc2)nc1 (stereo not drawn) [Compound 13]	229	230	204	148	108	244	243	–	–	–
NS(=O)(=O)c1cc2c(cc1Cl)NCNS2(=O)=O [HCTZ, hydrochlorothiazide, reference compound]	–	–	–	–	–	–	–	–	155	170
